Here are results for one compound from paper PMC11791359, “A select inhibitor of MORC2 encapsulated by chimeric membranecoated DNA nanocage target alleviation TNBC progression” (Materials Today Bio, 2025).

By Kd is commonly meant the concentration at which binding is half-saturated. The low end stands for higher affinity, the high end for lower affinity. The AUC(0-inf) is the area under the concentration-time curve extrapolated to infinity. Read a low AUC(0-inf) as low exposure. The AUC(0-t) is exposure summed from dosing to a finite time, without extrapolation to infinity. For orientation: Cmax means the maximum level reached in the sampled fluid or tissue. By MRT is commonly meant the average time that molecules of a dose stay in the body. As a reminder, the clearance is the volume of plasma or blood freed of the substance per unit of time. A word on the half-life: it is the time in which the quantity being followed falls by half. Read a high half-life as slow loss.

The structures appear in SMILES notation. “Also recorded” adds a separate entry of the source.

One series deals with T1, MORC2 protein (Homo sapiens, UniProt Q9Y6X9).
T1 construct: 6xHis; made in house; host or cells: Escherichia coli BL21
T1 sequence (Q9Y6X9 1-1032): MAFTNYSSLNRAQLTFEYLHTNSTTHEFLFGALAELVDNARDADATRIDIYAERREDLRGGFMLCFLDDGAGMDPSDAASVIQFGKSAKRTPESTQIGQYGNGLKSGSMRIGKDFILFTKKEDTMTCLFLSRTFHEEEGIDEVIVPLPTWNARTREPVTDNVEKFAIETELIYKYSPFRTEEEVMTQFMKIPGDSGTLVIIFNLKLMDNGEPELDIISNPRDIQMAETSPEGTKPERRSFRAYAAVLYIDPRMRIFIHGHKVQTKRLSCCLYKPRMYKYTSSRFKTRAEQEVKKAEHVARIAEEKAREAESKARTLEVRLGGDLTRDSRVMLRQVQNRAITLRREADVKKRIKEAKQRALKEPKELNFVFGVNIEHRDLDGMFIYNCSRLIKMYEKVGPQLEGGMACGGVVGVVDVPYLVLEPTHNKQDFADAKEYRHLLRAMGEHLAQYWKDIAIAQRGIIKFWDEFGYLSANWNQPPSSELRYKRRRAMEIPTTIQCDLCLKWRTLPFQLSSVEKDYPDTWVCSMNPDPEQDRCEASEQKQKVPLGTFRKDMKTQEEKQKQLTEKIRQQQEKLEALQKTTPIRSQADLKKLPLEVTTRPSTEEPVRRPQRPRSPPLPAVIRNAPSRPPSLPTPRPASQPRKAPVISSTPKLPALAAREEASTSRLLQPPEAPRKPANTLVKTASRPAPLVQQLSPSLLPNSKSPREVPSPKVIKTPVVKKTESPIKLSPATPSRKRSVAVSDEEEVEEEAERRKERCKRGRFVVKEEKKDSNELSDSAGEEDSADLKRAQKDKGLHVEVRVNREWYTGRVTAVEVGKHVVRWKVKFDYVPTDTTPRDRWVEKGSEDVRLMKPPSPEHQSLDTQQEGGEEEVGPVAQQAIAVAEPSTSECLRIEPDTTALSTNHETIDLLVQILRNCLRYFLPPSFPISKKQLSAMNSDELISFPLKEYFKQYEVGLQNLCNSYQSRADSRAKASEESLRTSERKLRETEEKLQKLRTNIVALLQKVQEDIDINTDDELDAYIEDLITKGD
Kind of series: SPR molecular interaction, MORC2 protein (WT). The format is binding. The method, then:
Topscience biological small molecule compound library was used to virtually screen out the potential small molecules by computer molecular docking. […] Then, a series of experiments were conducted to evaluate the binding ability between small molecule compounds and MORC2 protein. First, the optimal conditions for purification of MORC2 protein were investigated by univariate optimization method. Protein induction experiments were conducted under varying concentrations of IPTG (0 mM, 0.1 mM, 0.2 mM, 0.5 mM, 0.8 mM, 1 mM), temperature gradients (16 °C, 22 °C, 29 °C, 37 °C), and induction time (3 h, 6 h, 8 h, 10 h, 12 h). Finally, at 0.1 mM IPTG concentration, especially at 22 °C for 8 h, MORC2 protein expression reached the optimal level, which was verified by Coomassie blue staining (Figs. S7A–C). We cleared the other proteins by Binding/Wash Buffer 3 times and eluted the MORC2 protein with imidazole at 40 mM concentration to extract the high purity MORC2 protein (Fig. S7D). MORC2 protein with high purity was obtained according to the above conditions and verified by Coomassie blue staining (Fig. S7E). Then, surface plasmon resonance molecular interaction experiment was performed to detect the binding ability between small molecule compounds and MORC2 protein. […] Also, the binding strength between MORC2 and Angoline was dose-dependent on the concentration of Angoline (Fig. 2C). […]

For another series, the system named is MDA-MB-231 cells. The experiment in a line: CCK8 assay, MDA-MB-231. It counts as cell-based, human. The settings on record: CCK8, MDA-MB-231, 24 h. The method, then:
MDA-MB-231 and MDA-MB-468 cells were inoculated on 96-well plates with 5×10^3 cells per well, and then different small molecule drugs were added according to study requirements after the cell culture reached the appropriate density. Twenty-four hours after treatment, CCK-8 reagent was added to each well and incubated for 2 hours. Then, the absorbance of each well was measured at 450 nm using an enzyme-labeler to calculate the relative survival rate of cells.
Background: Formazan colour is commonly taken as a measure of viable cells.

Series [1] can be described thus: Pharmacokinetic study, single intravenous injection. Further details: species or system Sprague-Dawley (SD) rats. To be noted: Sprague-Dawley, rat, in vivo. The method, then: A pharmacokinetic (PK) study was performed to assess whether PMD could improve Angoline's systemic circulation and extend its half-life. Following a single intravenous injection of various formulations into Sprague-Dawley (SD) rats, blood samples were collected at predetermined time points and analyzed using HPLC. As illustrated in Fig. S19A and summarized in Table 1, the plasma concentration-time curves and PK parameters are presented. […] Furthermore, the data obtained from the area under the concentration-time curve (AUC) further confirmed the enhanced PK properties. Thus, the biomimetic nanodrug delivery system (PMD) confers Angoline with enhanced PK properties, attributed to its high stability and sustained drug release kinetics.

Series [2] relates to IL6/STAT3 signaling pathway. Further details: method as in PMID 24863036. To be noted: cited from earlier work.

For the compound `COc1ccc2c(c1OC)C(OC)N(C)c1c-2ccc2cc3c(cc12)OCO3` (stereo not shown) [Angoline], the Kd on MORC2 protein stood at 23.3 nM. In the series with MDA-MB-231 cells, the “killing effect / inhibitory effect on cell viability” value is “strongest killing effect; also recorded: progressively increased with higher concentrations”. The compound further gave a C0 in series [1] of 3670 ± 280 ng/mL. In series [1] (SD rats, single i.v.), this compound had an AUC(0-inf) of 15400 ± 190 ng·h/mL, an AUC(0-t) of 13200 ± 320 ng·h/mL, a Cmax of 3410 ± 150 ng/mL and an MRT of 6.08 ± 0.18 h. In series [1] (SD rats, single i.v.), this compound gave a clearance of 2.29 mL/min and a half-life of 4.15 ± 0.06 h. In series [2], the “suppression of IL6/STAT3 signaling pathway” value is “suppress the IL6/STAT3 signaling pathway”.
